Values quoted from earlier work in patent US20070092440A1, “Bone localising radiopharmaceutical and tubulin-interacting compound combinatorial” (priority 2003, published 2007).
Values belong to the molecule of their own block, whether it stands above or below them.

Assays:
[1] = in vivo
[2] = tested on: HRPC patients with bone metastases
[3] = in bone
[4] = tested on: bone pain, osteoblastic metastatic bone lesions; conditions: for treated patients with symptomatic relief of bone pain: in vivo
[5] = tested on: leukocyte and platelet counts; conditions: 1.0 mCi/kg
[6] = repeated dosing with 1.0 mCi/kg
[7] = supplied frozen

myelosuppression [1]: Myelosuppression has been observed
Structure (SMILES): CC(=O)O[C@@]12CO[C@@H]1C[C@H](O)[C@@]1(C)C(=O)[C@H](O)C3=C(C)[C@@H](OC(=O)[C@H](O)[C@@H](NC(=O)OC(C)(C)C)c4ccccc4)C[C@@](O)([C@@H](OC(=O)c4ccccc4)[C@H]21)C3(C)C [docetaxel]

Structure (SMILES): COc1cccc2c1C(=O)c1c(O)c3c(c(O)c1C2=O)C[C@@](O)(C(=O)CO)C[C@@H]3O[C@H]1C[C@H](N)[C@H](O)[C@H](C)O1 [doxorubicin]
overall survival ([2]; 72 HRPC patients with bone metastases, randomized): 16.8 months
incidence of Grade 3/4 neutropenia ([2]; in vivo): 22%

Structure (SMILES): O=P([O-])(O)CN(CCN(CP(=O)([O-])O)CP(=O)(O)O)CP(=O)([O-])O.[153Sm+3] [samarium Sm 153 lexidronam]
time in which the majority of excretion occurs (after administration): ≤ 8 h
time to complete excretion (after administration): ≤ 12 h
clearance route (in vivo): exclusively renal
uptake by nonosseous tissue (in vivo): no significant uptake
range of emission [3]: 1.7 mm
patients with pain relief at Week 4 who still had pain relief at Week 16 ([4]; 1.0 mCi/kg dose group): two-thirds
treated patients with symptomatic relief of bone pain [4]: approximately 80%
median time of nadir of leukocyte and platelet counts [5]: 4 weeks
patients with Grade 3/4 haematologic toxicity [5]: < 10%
time by which recovery of counts is generally complete [5]: 5-8 weeks
cumulative toxicity on repeated dosing [6]: not associated with cumulative toxicity
myelosuppression [1]: Myelosuppression has been observed
drug product expiry after the time of calibration [7]: 48 h

Structure (SMILES): [89Sr+2].[Cl-].[Cl-] [strontium 89 chloride]
treated patients with symptomatic relief of bone pain [4]: approximately 80%
